Values quoted from earlier work as cited in patent US8507698B2, “Artemisinin derivatives for the treatment of melanoma” (Lachifarma S.R.L. Laboratorio Chimico Farmaceutico Salentino, priority 2007, dated 2013).

Test system: cell line of oral cancer (YD-10B)
Conditions: read-out: CI50 (the source's name)

IC50: 13.1 µM
Structure (SMILES): CC(=O)O[C@H]1C(=O)[C@@]2(C)[C@H]([C@H](OC(=O)c3ccccc3)[C@]3(O)C[C@H](OC(=O)[C@H](O)[C@@H](NC(=O)c4ccccc4)c4ccccc4)C(C)=C1C3(C)C)[C@]1(OC(C)=O)CO[C@@H]1C[C@@H]2O [paclitaxel]
